Test: xn = mol fraction of the nth substance listed
Conditions: 100 kPa

CC[n+]1ccn(C)c1.O=S(=O)([N-]S(=O)(=O)C(F)(F)F)C(F)(F)F + CCOC(C)=O
Conditions | speed of sound [m/s] | viscosity [mPa·s]
298.15 K, x2 = 0 | 1240.2 | 32.49
298.15 K, x2 = 0.0986 | 1232.6 | 25
298.15 K, x2 = 0.1858 | 1225.5 | 20.15
298.15 K, x2 = 0.2977 | 1215.3 | 14.83
298.15 K, x2 = 0.3962 | 1203.4 | 10.88
298.15 K, x2 = 0.5051 | 1189.2 | 7.63
298.15 K, x2 = 0.5961 | 1180.3 | 5.44
298.15 K, x2 = 0.6909 | 1171.1 | 3.77
298.15 K, x2 = 0.7974 | 1158.2 | 2.24
298.15 K, x2 = 0.8979 | 1147.7 | 0.93
303.15 K, x2 = 0 | 1229.3 | 27.68
303.15 K, x2 = 0.0986 | 1221.4 | 21.28
303.15 K, x2 = 0.1858 | 1213.9 | 17.32
303.15 K, x2 = 0.5051 | 1175.9 | 6.47
303.15 K, x2 = 0.6909 | 1155.8 | 3.31
308.15 K, x2 = 0.0986 | 1210.4 | 18.31
308.15 K, x2 = 0.1858 | 1202.6 | 14.96
308.15 K, x2 = 0.3962 | 1178.5 | 8.3
308.15 K, x2 = 0.5051 | 1162.7 | 5.78
308.15 K, x2 = 0.5961 | 1151.7 | 4.15
308.15 K, x2 = 0.6909 | 1139.5 | 2.78
308.15 K, x2 = 0.7974 | 1123.4 | 1.63
308.15 K, x2 = 0.8979 | 1109 | 0.83
313.15 K, x2 = 0 | 1207.9 | 20.16
313.15 K, x2 = 0.0986 | 1199.5 | 15.97
313.15 K, x2 = 0.1858 | 1191.4 | 13.01
313.15 K, x2 = 0.2977 | 1179.8 | 9.91
313.15 K, x2 = 0.5961 | 1137.9 | 3.71
313.15 K, x2 = 0.6909 | 1124.4 | 2.48
313.15 K, x2 = 0.7974 | 1106.4 | 1.47
313.15 K, x2 = 0.8979 | 1089.8 | 0.8
318.15 K, x2 = 0 | 1197.3 | 17.48
318.15 K, x2 = 0.0986 | 1188.6 | 14
318.15 K, x2 = 0.2977 | 1168.3 | 8.8
318.15 K, x2 = 0.5961 | 1123.8 | 3.27
318.15 K, x2 = 0.6909 | 1109.4 | 2.3
318.15 K, x2 = 0.7974 | 1089.2 | 1.29
323.15 K, x2 = 0 | 1187 | 15.34
323.15 K, x2 = 0.0986 | 1178.9 | 12.36
323.15 K, x2 = 0.1858 | 1169.7 | 10.19
323.15 K, x2 = 0.2977 | 1156.8 | 7.87
323.15 K, x2 = 0.3962 | 1142.5 | 5.82
323.15 K, x2 = 0.5051 | 1124 | 3.9
323.15 K, x2 = 0.5961 | 1110 | 2.94
323.15 K, x2 = 0.7974 | 1071.9 | 1.16
323.15 K, x2 = 0.8979 | 1051.6 | 0.7

CCOC(C)=O + CC[n+]1ccn(C)c1.O=S(=O)([N-]S(=O)(=O)C(F)(F)F)C(F)(F)F
x1 = 1
Conditions | speed of sound [m/s] | viscosity [mPa·s]
298.15 K | 1140.8 | 0.42
308.15 K | 1096 | 0.38
313.15 K | 1073.7 | 0.36
318.15 K | 1051.7 | 0.35
323.15 K | 1029.5 | 0.33

Source: a compilation of properties of binary mixtures (doi:10.1016/j.molliq.2016.09.077)
